Key:
[1] = molecular target: T1, Tissue-type plasminogen activator (Homo sapiens, UniProt P00750); assay: Ability to inhibit tissue plasminogen activator (quadratech) and S-2444 as substrate
Target sequence in this assay (P00750 whole entry): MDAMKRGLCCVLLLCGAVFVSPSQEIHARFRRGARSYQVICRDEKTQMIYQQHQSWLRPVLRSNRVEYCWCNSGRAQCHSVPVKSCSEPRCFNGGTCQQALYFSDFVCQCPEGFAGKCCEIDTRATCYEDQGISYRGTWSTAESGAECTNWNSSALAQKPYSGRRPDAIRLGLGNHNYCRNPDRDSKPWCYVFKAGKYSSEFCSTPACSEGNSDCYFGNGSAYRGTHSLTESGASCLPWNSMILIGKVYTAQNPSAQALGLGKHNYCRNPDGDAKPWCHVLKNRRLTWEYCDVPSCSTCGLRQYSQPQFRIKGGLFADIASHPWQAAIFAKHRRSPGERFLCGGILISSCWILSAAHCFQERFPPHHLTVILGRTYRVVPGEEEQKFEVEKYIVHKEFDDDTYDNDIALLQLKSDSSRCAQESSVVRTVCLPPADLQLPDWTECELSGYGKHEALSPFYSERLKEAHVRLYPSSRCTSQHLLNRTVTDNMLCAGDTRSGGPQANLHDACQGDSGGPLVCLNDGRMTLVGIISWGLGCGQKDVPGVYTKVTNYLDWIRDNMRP

[2] = molecular target: Urokinase-type plasminogen activator (Homo sapiens, UniProt P00749); assay: In vitro inhibition of human urokinase Plasminogen Activator.
Plasminogen [3] = molecular target: T2, Plasminogen (Homo sapiens, UniProt P00747); assay: In vitro inhibition of human plasmin.; parameters: concentration or dose not given beside the values; conditions: concentration not given here
T2 sequence (P00747 97-580 limits assumed): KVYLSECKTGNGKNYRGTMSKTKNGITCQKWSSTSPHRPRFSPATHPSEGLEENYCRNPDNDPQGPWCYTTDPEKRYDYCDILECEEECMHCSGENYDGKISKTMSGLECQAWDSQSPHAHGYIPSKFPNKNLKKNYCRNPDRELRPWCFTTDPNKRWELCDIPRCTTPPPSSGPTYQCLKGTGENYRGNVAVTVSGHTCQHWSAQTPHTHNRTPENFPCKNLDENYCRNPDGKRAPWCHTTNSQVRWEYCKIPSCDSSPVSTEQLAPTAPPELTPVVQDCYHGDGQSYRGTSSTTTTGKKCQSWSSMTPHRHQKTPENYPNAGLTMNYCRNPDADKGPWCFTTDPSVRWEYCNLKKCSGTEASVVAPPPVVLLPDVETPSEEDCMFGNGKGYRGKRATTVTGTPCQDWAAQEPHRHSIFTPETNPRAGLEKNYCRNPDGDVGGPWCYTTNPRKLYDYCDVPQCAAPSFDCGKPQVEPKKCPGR
T2 sequence (P00747 581-810 limits assumed): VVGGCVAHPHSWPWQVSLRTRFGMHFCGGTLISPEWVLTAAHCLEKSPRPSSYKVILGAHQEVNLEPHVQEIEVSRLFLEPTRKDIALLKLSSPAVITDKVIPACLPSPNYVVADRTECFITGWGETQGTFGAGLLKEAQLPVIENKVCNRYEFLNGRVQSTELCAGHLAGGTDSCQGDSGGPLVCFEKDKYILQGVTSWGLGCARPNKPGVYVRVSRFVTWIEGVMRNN

[4] = molecular target: T1, Tissue-type plasminogen activator; assay: Ability to inhibit tissue plasminogen activator (quadratech) and S-2444 as substrate at concentration of 1 mM
Target sequence in this assay (P00750 36-562 limits assumed): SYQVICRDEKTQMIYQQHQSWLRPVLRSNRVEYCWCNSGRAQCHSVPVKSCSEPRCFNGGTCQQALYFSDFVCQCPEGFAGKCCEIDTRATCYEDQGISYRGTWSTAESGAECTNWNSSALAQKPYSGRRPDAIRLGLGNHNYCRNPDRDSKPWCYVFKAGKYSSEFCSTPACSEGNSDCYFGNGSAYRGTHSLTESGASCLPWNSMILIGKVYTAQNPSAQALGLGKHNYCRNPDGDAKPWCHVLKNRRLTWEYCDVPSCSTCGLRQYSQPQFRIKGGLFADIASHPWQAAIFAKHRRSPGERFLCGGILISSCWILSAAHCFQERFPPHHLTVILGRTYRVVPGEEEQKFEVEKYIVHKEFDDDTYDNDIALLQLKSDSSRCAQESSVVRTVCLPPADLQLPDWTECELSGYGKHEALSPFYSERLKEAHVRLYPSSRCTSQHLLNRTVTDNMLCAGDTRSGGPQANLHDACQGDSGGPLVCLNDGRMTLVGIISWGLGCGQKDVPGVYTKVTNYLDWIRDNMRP

Plasminogen [5] = molecular target: T2, Plasminogen; assay: Ability to inhibit plasmin using human plasmin (quadratech) and Chromozym-PL (boehringer) as substrate
Plasminogen [6] = molecular target: T2, Plasminogen; assay: Ability to inhibit plasmin using human plasmin (quadratech) and Chromozym-PL (boehringer) as substrate at concentration of 100 uM
[7] = molecular target: T1, Tissue-type plasminogen activator; assay: Ability to inhibit human tissue plasminogen activator stimulator at concentration of 1 uM
Target sequence in this assay (P00750 36-562 limits assumed): as above

Plasminogen [8] = molecular target: T2, Plasminogen; assay: Ability to inhibit human plasmin using Chromozym-PL as substrate at concentration of 1 uM
[9] = molecular target: T1, Tissue-type plasminogen activator; assay: Ability to inhibit tissue plasminogen activator (quadratech) and S-2444 as substrate at concentration of 300 uM
Target sequence in this assay (P00750 36-562 limits assumed): as above

| Structure (SMILES) | Ki [1] [µM] | Ki [2] [µM] | inhibition (Plasminogen [3]) [%] | inhibition [4] [%] | other results |
| --- | --- | --- | --- | --- | --- |
| N=C(N)Nc1ncc(Cl)cc1Oc1ccccc1 | 342 | 2.13 | < 50 | – | – |
| N=C(N)Nc1ncc(Cl)cc1-c1ccccc1 | – | 166 | < 50 | < 50 | – |
| N=C(N)Nc1ncc(Cl)cc1/C=C/c1ccccn1 | 258 | 1.6 | < 50 | – | – |
| COc1ccc(/C=C/c2cc(Cl)cnc2N=C(N)N)cc1 | 60.1 | 0.69 | – | – | Ki (Plasminogen [5]): 42.5 µM |
| NC(N)=Nc1ncc(Cl)cc1/C=C/c1cccc(C(=O)O)c1 | 52 | 0.17 | – | – | – |
| N=C(N)Nc1ncc(Cl)cc1/C=C/c1cccc(C(=O)O)c1 | – | – | – | – | inhibition (Plasminogen [6]): < 50% |
| N=C(N)Nc1ncc(Cl)cc1/C=C/C(=O)O | – | – | – | – | inhibition [7]: < 50%; Ki (Plasminogen [8]): 279 µM |
| NC(N)=Nc1ncc(Cl)cc1OCC(=O)NCc1ccccc1 | – | 16.1 | – | – | – |
| N=C(N)Nc1ncc(Cl)cc1/C=C/c1ccc2c(c1)OCO2 | – | 0.49 | < 50 | – | inhibition [9]: 50% |
| CNC(=O)/C=C/c1cc(Cl)cnc1N=C(N)N | – | 1.28 | < 50 | < 50 | – |
| N=C(N)Nc1ncc(Cl)cc1/C=C/C1CCCCC1 | 71.5 | – | < 50 | – | – |
| CN(Cc1ccccc1)C(=O)/C=C/c1cc(Cl)cnc1N=C(N)N | – | 2 | < 50 | < 50 | – |
| N=C(N)Nc1ncc(Cl)cc1/C=C/C(=O)NCc1ccccc1 | – | 0.77 | < 50 | < 50 | – |
| N=C(N)Nc1ncc(Cl)cc1C#Cc1ccccc1 | 65.9 | – | – | – | Ki (Plasminogen [5]): 218 µM |
| COCCOc1cc(Cl)cnc1N=C(N)N | – | 16.4 | < 50 | < 50 | – |
| N=C(N)Nc1ncc(Cl)cc1OCC(=O)NCc1ccccc1 | – | – | < 50 | < 50 | – |
| N=C(N)Nc1ncc(Cl)cc1CCC(=O)O | – | – | < 50 | < 50 | – |
| N=C(N)Nc1ncc(Cl)cc1OCc1ccccc1 | – | 0.92 | < 50 | < 50 | – |
| N=C(N)Nc1ncc(Cl)cc1/C=C/c1ccccc1 | 53.8 | – | < 50 | – | – |
| N=C(N)Nc1ncc(Cl)cc1/C=C/C(=O)N1CCOCC1 | – | 2.1 | < 50 | < 50 | – |
| N=C(N)Nc1ncc(Cl)cc1OCC(=O)O | – | – | < 50 | < 50 | – |

Source: ChEMBL document CHEMBL1135370, “Selective urokinase-type plasminogen activator (uPA) inhibitors. Part 2: (3-Substituted-5-halo-2-pyridinyl)guanidines” (Bioorg Med Chem Lett, 2002)
